Source: ChEMBL document CHEMBL1155810, “Synthesis, structure-activity relationships, and biological profiles of a quinazolinone class of histamine H3 receptor inverse agonists” (J Med Chem, 2008)
Active and inactive are the calls of the source. The rule behind the calls is not given here.

How the values were obtained:
[1] = target: Histamine H3 receptor (Homo sapiens, UniProt Q9Y5N1); experiment: Inverse agonist activity at human histamine H3 receptor expressed in CHO-K1 cells assessed as inhibition of N-alpha-methylhistamine-induced [35S]GTPgammaS binding; assay type: functional, cell-based
[2] = target: Voltage-gated inwardly rectifying potassium channel KCNH2 (Homo sapiens, UniProt Q12809)
[3] = target: T1, Cytochrome P450 1A2 (Homo sapiens, UniProt P05177); experiment: Inhibition of CYP1A2; assay type: ADME
T1 sequence (P05177 whole entry): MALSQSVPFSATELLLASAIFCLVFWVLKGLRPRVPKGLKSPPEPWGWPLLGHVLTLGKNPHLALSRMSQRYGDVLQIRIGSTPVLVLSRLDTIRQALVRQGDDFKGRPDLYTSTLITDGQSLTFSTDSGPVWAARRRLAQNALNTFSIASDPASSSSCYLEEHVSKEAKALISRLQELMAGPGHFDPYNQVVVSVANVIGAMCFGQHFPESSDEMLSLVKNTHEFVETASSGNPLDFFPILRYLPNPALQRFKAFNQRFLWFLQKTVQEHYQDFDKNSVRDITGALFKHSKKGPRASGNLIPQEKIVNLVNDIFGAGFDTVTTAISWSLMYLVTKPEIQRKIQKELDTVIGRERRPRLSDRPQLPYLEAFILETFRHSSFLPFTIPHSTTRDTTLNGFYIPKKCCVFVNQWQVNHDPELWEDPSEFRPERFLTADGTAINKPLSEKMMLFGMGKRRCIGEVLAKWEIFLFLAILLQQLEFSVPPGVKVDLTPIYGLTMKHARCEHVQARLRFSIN

[4] = target: Cytochrome P450 2C19 (Homo sapiens, UniProt P33261); experiment: Inhibition of CYP2C19; assay type: ADME
[5] = Cmax in rhesus monkey at 3 mg/kg, po; assay type: ADME, organism-based, Macaca mulatta; set-up: dose 3 mg/kg, route oral; details: in vivo
[6] = test system: Rattus norvegicus; experiment: Effect on histamine release in Sprague-Dawley rat brain assessed as increase in tele-methylhistamine level at 30 mg/kg, po after 2 hrs; assay type: functional, organism-based; set-up: dose 30 mg/kg
[7] = species: Mus musculus; experiment: Ex vivo receptor occupancy of […] histamine H3 receptor in wild type MDR1a-proficient CF1 mouse plasma; assay type: functional
[8] = target: Histamine H4 receptor (Homo sapiens, UniProt Q9H3N8); experiment: Inhibition of human histamine H4 receptor
[9] = Half life in rhesus monkey at 1 mg/kg, iv; assay type: ADME, organism-based, Macaca mulatta; set-up: dose 1 mg/kg, route intravenous; details: in vivo
[10] = target: Cytochrome P450 2D6 (Homo sapiens, UniProt P10635); experiment: Inhibition of CYP2D6; assay type: ADME
[11] = Half life in Sprague-Dawley rat at 1 mg/kg, iv; assay type: ADME, organism-based; set-up: dose 1 mg/kg, route intravenous; details: in vivo
[12] = Ratio of drug level in MDR1a-deficient CF1 mouse brain to plasma at 10 mg/kg, po after 2 hrs; assay type: ADME, organism-based; set-up: dose 10 mg/kg, route oral; details: read-out: BPR
[13] = target: Cytochrome P450 3A4 (Homo sapiens, UniProt P08684); experiment: Inhibition of CYP3A4; assay type: ADME
[14] = Plasma clearance in rhesus monkey at 1 mg/kg, iv; assay type: ADME, organism-based, Macaca mulatta; set-up: dose 1 mg/kg, route intravenous
[15] = target: Histamine H1 receptor (Homo sapiens, UniProt P35367); experiment: Inhibition of human histamine H1 receptor
[16] = Volume of distribution at steady state in rhesus monkey at 1 mg/kg, iv; assay type: ADME, organism-based, Macaca mulatta; set-up: dose 1 mg/kg, route intravenous; details: in vivo, read-out: Vdss
[17] = target: Histamine receptor H3 (Macaca mulatta, UniProt Q865E1); experiment: Displacement of [3H]N-alpha-methylhistamine from rhesus monkey histamine H3 receptor expressed in HEK293T cells; assay type: cell-based, HEK-293T
[18] = Half life in Beagle dog at 1 mg/kg, iv; assay type: ADME, organism-based, Canis lupus familiaris; set-up: dose 1 mg/kg, route intravenous; details: in vivo
[19] = Cmax in Sprague-Dawley rat at 3 mg/kg, po; assay type: ADME, organism-based; set-up: dose 3 mg/kg, route oral; details: in vivo
[20] = target: T2, Cytochrome P450 2A6 (Homo sapiens, UniProt P11509); experiment: Inhibition of CYP2A6; assay type: ADME
T2 sequence (P11509 whole entry): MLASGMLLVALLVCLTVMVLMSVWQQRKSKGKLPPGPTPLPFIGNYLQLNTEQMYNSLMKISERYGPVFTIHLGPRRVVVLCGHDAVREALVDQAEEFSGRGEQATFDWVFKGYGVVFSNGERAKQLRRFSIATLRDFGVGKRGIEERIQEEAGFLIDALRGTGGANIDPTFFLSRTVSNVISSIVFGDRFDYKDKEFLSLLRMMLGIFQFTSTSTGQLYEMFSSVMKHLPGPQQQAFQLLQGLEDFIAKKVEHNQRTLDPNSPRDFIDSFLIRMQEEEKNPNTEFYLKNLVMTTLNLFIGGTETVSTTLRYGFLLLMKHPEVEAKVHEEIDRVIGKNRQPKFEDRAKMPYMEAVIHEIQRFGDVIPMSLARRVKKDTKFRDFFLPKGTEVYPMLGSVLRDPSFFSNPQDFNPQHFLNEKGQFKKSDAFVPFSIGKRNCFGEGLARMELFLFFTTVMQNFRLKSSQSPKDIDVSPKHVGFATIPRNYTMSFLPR

[21] = Volume of distribution at steady state in Beagle dog at 1 mg/kg, iv; assay type: ADME, organism-based, Canis lupus familiaris; set-up: dose 1 mg/kg, route intravenous; details: in vivo, read-out: Vdss
[22] = Oral bioavailability in Beagle dog at 3 mg/kg; assay type: ADME, organism-based, Canis lupus familiaris; details: in vivo
[23] = target: Histamine H3 receptor (Rattus norvegicus, UniProt Q9QYN8); experiment: Displacement of [3H]N-alpha-methylhistamine from rat histamine H3 receptor expressed in HEK293 cells coexpressed with CRE-beta-lactamase; assay type: cell-based
[24] = target: Cytochrome P450 2C9 (Homo sapiens, UniProt P11712); experiment: Inhibition of CYP2C9; assay type: ADME
[25] = AUC (0 to infinity) in rhesus monkey at 3 mg/kg, po; assay type: ADME, organism-based, Macaca mulatta; set-up: time infinity, dose 3 mg/kg, route oral; details: plasma
[26] = AUC (0 to infinity) in Sprague-Dawley rat at 3 mg/kg, po; assay type: ADME, organism-based; set-up: time infinity, dose 3 mg/kg, route oral; details: plasma
[27] = Ratio of drug level in Sprague-Dawley rat brain to plasma; assay type: ADME; details: read-out: BPR
[28] = species: Mus musculus; experiment: Ex vivo receptor occupancy of […] histamine H3 receptor in MDR1a-deficient CF1 mouse plasma; assay type: functional
[29] = AUC (0 to infinity) in Beagle dog at 3 mg/kg, po; assay type: ADME, organism-based, Canis lupus familiaris; set-up: time infinity, dose 3 mg/kg, route oral; details: plasma
[30] = Plasma concentration in Sprague-Dawley rat at 10 mg/kg, po after 2 hrs; assay type: ADME, organism-based; set-up: dose 10 mg/kg, route oral
[31] = Ratio of drug level in wild type MDR1a-proficient CF1 mouse brain to plasma at 10 mg/kg, po after 2 hrs; assay type: ADME, organism-based; set-up: dose 10 mg/kg, route oral; details: read-out: BPR
[32] = Volume of distribution at steady state in Sprague-Dawley rat at 1 mg/kg, iv; assay type: ADME, organism-based; set-up: dose 1 mg/kg, route intravenous; details: in vivo, read-out: Vdss
[33] = species: Mus musculus; experiment: Ex vivo receptor occupancy of […] histamine H3 receptor in MDR1a-deficient CF1 mouse brain; assay type: functional
[34] = Oral bioavailability in rhesus monkey at 3 mg/kg; assay type: ADME, organism-based, Macaca mulatta; details: in vivo
[35] = Plasma clearance in Beagle dog at 1 mg/kg, iv; assay type: ADME, organism-based, Canis lupus familiaris; set-up: dose 1 mg/kg, route intravenous
[36] = Cmax in Beagle dog at 3 mg/kg, po; assay type: ADME, organism-based, Canis lupus familiaris; set-up: dose 3 mg/kg, route oral; details: in vivo
[37] = species: Mus musculus; experiment: Ex vivo receptor occupancy of […] histamine H3 receptor in wild type MDR1a-proficient CF1 mouse brain; assay type: functional
[38] = test system: Brain; experiment: Drug level in Sprague-Dawley rat brain at 10 mg/kg, po after 2 hrs; assay type: ADME, organism-based; set-up: dose 10 mg/kg, route oral; details: in vivo
[39] = test system: Rattus norvegicus; experiment: Ex vivo increase in receptor occupancy of histamine H3 receptor in Sprague-Dawley rat brain at 30 mg/kg, po by autoradiography; assay type: functional
[40] = Plasma clearance in Sprague-Dawley rat at 1 mg/kg, iv; assay type: ADME, organism-based; set-up: dose 1 mg/kg, route intravenous
[41] = Oral bioavailability in Sprague-Dawley rat at 3 mg/kg; assay type: ADME, organism-based; details: in vivo
[42] = target: Histamine H2 receptor (Homo sapiens, UniProt P25021); experiment: Inhibition of human histamine H2 receptor
Histamine H2 receptor, sequence (P25021 whole entry): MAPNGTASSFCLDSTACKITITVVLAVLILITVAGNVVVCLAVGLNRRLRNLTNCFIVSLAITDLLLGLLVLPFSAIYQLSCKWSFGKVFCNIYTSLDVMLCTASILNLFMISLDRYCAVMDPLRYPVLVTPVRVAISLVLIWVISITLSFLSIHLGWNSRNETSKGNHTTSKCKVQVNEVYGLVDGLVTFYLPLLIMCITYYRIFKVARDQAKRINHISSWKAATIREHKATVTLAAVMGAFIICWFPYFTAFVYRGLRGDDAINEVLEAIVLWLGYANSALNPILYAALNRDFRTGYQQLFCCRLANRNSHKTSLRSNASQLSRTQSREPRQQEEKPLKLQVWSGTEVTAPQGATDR

Voltage-gated inwardly rectifying potassium channel KCNH2, sequence (Q12809 whole entry): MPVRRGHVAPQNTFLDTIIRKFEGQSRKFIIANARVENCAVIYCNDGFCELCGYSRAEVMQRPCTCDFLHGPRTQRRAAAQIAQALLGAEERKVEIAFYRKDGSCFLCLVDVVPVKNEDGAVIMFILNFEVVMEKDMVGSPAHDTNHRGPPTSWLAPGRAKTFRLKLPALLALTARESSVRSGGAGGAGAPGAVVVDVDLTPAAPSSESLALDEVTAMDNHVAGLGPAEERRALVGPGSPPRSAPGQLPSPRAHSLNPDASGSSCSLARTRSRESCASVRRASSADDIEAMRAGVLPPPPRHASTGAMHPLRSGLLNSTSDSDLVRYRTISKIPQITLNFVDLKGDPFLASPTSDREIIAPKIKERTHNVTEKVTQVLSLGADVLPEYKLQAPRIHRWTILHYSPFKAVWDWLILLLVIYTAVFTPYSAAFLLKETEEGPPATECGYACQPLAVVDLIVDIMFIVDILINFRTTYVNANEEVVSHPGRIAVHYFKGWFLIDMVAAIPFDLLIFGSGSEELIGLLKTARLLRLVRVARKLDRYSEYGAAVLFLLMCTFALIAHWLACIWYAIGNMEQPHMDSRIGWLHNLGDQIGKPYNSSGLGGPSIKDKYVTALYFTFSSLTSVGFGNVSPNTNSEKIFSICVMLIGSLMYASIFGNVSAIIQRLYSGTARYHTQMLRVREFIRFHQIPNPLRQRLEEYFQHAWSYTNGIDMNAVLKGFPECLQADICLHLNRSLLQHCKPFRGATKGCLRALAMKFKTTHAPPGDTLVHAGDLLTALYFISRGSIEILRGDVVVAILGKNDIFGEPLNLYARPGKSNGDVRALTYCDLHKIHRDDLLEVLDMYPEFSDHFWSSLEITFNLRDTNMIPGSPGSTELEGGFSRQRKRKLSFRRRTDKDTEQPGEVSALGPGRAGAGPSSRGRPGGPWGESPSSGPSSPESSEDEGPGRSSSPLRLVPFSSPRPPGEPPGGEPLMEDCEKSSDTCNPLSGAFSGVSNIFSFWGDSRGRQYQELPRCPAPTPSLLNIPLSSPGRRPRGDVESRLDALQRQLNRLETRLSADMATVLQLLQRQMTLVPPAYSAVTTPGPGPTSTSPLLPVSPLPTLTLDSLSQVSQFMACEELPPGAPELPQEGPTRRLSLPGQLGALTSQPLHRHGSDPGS
Histamine H3 receptor (Homo sapiens, UniProt Q9Y5N1), sequence (Q9Y5N1 whole entry): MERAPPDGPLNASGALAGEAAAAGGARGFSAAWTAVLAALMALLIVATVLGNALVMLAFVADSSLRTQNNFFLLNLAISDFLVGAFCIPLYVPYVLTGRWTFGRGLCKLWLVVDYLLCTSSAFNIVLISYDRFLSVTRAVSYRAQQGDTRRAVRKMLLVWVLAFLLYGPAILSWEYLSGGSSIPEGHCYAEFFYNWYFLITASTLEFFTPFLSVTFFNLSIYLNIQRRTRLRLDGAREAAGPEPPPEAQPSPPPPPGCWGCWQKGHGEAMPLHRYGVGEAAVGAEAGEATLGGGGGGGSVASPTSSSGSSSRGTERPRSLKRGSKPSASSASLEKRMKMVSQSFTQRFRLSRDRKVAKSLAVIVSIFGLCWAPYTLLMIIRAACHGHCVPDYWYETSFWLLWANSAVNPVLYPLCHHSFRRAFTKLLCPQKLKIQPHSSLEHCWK
Histamine H3 receptor (Rattus norvegicus, UniProt Q9QYN8), sequence (Q9QYN8 whole entry): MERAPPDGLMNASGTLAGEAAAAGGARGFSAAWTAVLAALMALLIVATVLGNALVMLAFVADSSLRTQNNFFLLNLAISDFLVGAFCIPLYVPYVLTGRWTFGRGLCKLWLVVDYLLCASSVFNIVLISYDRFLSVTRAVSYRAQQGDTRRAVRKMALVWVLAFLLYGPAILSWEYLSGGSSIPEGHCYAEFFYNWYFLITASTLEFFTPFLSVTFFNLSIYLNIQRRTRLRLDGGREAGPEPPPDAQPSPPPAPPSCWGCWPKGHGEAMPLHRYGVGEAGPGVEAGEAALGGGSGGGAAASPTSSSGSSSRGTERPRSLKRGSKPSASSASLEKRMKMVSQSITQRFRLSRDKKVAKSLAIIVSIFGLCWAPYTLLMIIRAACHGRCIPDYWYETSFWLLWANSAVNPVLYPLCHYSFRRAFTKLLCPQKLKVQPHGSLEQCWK
Cytochrome P450 2C19, sequence (P33261 whole entry): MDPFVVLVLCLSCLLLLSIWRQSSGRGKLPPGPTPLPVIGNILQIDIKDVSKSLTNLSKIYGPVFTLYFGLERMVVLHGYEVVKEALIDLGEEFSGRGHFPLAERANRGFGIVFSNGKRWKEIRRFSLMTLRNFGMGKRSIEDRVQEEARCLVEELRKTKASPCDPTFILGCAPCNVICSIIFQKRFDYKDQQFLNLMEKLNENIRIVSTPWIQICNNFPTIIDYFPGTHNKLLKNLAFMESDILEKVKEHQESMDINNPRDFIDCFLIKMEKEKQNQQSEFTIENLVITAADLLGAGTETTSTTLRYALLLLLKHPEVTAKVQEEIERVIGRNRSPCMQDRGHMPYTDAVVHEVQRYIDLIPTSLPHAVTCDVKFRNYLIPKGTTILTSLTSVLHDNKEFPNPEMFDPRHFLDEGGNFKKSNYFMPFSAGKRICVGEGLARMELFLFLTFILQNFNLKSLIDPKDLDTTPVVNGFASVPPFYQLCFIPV
Cytochrome P450 2D6, sequence (P10635 whole entry): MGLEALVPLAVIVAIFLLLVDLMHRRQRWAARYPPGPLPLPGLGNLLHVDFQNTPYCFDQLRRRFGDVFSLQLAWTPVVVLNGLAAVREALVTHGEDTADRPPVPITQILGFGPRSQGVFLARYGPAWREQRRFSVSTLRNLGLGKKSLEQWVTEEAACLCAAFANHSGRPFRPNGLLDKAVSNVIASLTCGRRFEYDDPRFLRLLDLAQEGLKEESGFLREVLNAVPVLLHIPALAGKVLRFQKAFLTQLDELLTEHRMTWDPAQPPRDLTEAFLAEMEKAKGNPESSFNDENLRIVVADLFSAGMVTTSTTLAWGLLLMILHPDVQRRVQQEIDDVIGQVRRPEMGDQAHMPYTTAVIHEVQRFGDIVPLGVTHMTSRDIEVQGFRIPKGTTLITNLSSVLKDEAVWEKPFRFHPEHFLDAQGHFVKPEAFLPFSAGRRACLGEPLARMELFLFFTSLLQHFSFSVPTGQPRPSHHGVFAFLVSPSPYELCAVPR
Cytochrome P450 3A4, sequence (P08684 whole entry): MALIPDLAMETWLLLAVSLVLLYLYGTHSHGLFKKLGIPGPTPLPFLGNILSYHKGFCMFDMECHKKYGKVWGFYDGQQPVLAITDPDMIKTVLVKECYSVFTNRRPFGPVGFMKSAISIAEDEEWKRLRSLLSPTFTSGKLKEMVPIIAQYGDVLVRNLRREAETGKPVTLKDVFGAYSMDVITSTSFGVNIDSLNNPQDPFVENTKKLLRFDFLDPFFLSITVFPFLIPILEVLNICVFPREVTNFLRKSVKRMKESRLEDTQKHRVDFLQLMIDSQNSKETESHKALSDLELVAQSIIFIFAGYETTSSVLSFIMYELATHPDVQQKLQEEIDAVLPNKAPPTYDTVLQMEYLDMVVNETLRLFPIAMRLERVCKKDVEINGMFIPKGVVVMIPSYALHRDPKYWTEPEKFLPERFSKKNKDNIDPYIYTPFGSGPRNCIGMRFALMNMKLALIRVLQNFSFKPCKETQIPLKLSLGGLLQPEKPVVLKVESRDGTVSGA
Cytochrome P450 2C9, sequence (P11712 whole entry): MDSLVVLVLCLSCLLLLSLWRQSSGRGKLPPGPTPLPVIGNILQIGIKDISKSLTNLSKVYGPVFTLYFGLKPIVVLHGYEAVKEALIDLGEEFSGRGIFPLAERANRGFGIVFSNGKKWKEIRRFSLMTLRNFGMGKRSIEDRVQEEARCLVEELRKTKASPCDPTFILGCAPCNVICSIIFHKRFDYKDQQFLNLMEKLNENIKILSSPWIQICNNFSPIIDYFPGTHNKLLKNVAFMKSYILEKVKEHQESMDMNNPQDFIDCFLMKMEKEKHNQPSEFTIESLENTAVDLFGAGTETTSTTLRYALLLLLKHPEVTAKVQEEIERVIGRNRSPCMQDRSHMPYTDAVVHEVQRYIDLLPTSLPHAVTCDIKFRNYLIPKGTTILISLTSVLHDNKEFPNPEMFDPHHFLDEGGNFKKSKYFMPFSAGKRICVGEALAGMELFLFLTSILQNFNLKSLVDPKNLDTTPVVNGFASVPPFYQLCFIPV
Histamine receptor H3, sequence (Q865E1 whole entry): as the sequence (Q9Y5N1 whole entry) above, with D148N, A240G, V282A, A289T, T290A, V300A, H442Q counted along it
Histamine H1 receptor, sequence (P35367 whole entry): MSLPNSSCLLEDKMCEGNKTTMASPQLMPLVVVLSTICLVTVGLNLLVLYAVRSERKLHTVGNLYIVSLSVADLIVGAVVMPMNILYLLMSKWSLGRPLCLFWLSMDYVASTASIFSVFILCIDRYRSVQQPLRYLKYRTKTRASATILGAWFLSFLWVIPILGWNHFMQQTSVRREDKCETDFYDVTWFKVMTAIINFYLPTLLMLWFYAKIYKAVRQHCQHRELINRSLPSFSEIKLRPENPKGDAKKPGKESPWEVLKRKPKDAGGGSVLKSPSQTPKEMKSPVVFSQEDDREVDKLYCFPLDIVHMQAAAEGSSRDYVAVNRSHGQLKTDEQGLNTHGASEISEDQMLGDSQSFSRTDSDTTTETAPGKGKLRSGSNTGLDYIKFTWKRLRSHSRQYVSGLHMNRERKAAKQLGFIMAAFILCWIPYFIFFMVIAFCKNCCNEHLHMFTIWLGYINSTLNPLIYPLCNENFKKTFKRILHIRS

Cc1nc2ccccc2c(=O)n1-c1ccc(OCCCN2[C@H](C)CC[C@H]2C)cc1
IC50 [1]: 20 nM

Cc1nc2ccccc2c(=O)n1-c1ccc(OCCCN2CC(C)CC(C)C2)cc1 (configuration not stated)
IC50 [1]: 28 nM

Cc1nc2ccccc2c(=O)n1-c1ccc(OCCCN2CCCCCC2)cc1
IC50 [1]: 1.6 nM

Cc1nc2ccccc2c(=O)n1-c1ccc(OCCCN2CCC[C@@H]2C)cc1
IC50 [1]: 2.2 nM
IC50 [2]: 6000 nM

Cc1nc2ccccc2c(=O)n1-c1ccc(OCCCN2CCC[C@H]2C)cc1
IC50 [1]: 4.3 nM
IC50 [2]: > 10000 nM

Cc1nc2ccccc2c(=O)n1-c1ccc(OCCCN2CCC(C)CC2)cc1
IC50 [1]: 23 nM

Cc1nc2ccccc2c(=O)n1-c1ccc(OCCCN2CCC[C@H](C)C2)cc1
IC50 [1]: 0.72 nM
IC50 [2]: 5300 nM

Cc1nc2ccccc2c(=O)n1-c1ccc(OCCCN2CCCCCCC2)cc1
IC50 [1]: 10 nM

Cc1nc2ccccc2c(=O)n1-c1ccc(OCCCN2CCCCC2C)cc1 (configuration not stated)
IC50 [1]: 11 nM

Cc1nc2ccccc2c(=O)n1-c1ccc(OCCCN2CCCCC2)cc1
IC50 [1]: 3.1 nM

Cc1nc2ccccc2c(=O)n1-c1ccc(OCCCN2CCC(C)C2)cc1 (configuration not stated)
IC50 [1]: 5.8 nM
IC50 [2]: 6400 nM

Cc1nc2ccccc2c(=O)n1-c1ccc(OCCCN2CCC[C@@H](C)C2)cc1
IC50 [1]: 41 nM

CCN(CC)CCCOc1ccc(-n2c(C)nc3ccccc3c2=O)cc1
IC50 [1]: 33 nM

Cc1nc2cccc(C(F)(F)F)c2c(=O)n1-c1ccc(OCCCN2CCCC2)cc1 [MK-0249]
IC50 [3]: > 27000 nM
IC50 [4]: > 27000 nM
Cmax [5]: 440 nM
Activity [6]: Active
Occ90 [7]: 1.17 µM
IC50 [8]: > 10000 nM
half-life [9]: 5.4 h
IC50 [10]: > 27000 nM
half-life [11]: 5.5 h
Kp at 2 h [12]: 14
IC50 [13]: > 27000 nM
clearance [14]: 18 mL/min/kg
IC50 [15]: > 10000 nM
Vd [16]: 6 L/kg
Ki [17]: 4.3 nM
half-life [18]: 9.9 h
Cmax [19]: 1010 nM
IC50 [20]: > 27000 nM
Vd [21]: 9.7 L/kg
bioavailability [22]: > 100%
Ki [23]: 33 nM
IC50 [24]: > 21000 nM
AUC(0-inf) [25]: 1.84 µM·h
AUC(0-inf) [26]: 6.35 µM·h
Kp [27]: 1.1
Occ90 [28]: 40 nM
AUC(0-inf) [29]: 11.8 µM·h
concentration at 2 h [30]: 1580 nM
Kp at 2 h [31]: 0.8
Vd [32]: 4.4 L/kg
Occ90 [33]: 2 nmol/g
bioavailability [34]: 28%
clearance [35]: 19 mL/min/kg
Cmax [36]: 1800 nM
Occ90 [37]: 2 nmol/g
Drug uptake [38]: 1.67 nmol/g
Activity [39]: >90%
clearance [40]: 12 mL/min/kg
bioavailability [41]: 65%
IC50 [42]: > 10000 nM
